Here are results for 7 compounds from US20140275108A1, “NOVEL BENZENESULFONAMIDE COMPOUNDS, METHOD FOR SYNTHESIZING SAME, AND USE THEREOF IN MEDICINE AS WELL AS IN COSMETICS” (GALDERMA RESEARCH & DEVELOPMENT, priority 2013, published 2014).

Each structure is given as a SMILES string. Like-named read-outs stand apart in the source and are kept apart here.

Test [1] concerns the target MMP-12 (Homo sapiens, UniProt P39900). Put plainly: Inhibition of MMPs, MMP-12. In kind it is biochemical. The conditions noted are these: Table 3, Example 30. The text has this: (§1) Several compounds were dose-response tested on TACE and MMP-1, MMP-3, and MMP-12 according to the same protocol as that described above.
For test [2], the system named is other MMPs. Put plainly: Inhibition of other MMPs (data not shown). In kind it is biochemical.
Source text: as §1

Test [3] concerns the target TACE enzyme (Homo sapiens, UniProt P78536). As to the kind of experiment: Enzymatic assay for TACE inhibition (fluorescent substrate). In kind it is biochemical.
Test [4] has as its system edema induced by P. acnes. As to the kind of experiment: Mouse ear edema model, cutaneous inflammation induced by P. acnes (ear thickness). In kind it is in vivo, Balb/c mouse. As to conditions: topical on mouse ear, Day 1 to Day 7, after intradermal live P. acnes; Compound D 0.1%, 0.3%, 0.6% once a day, 0.6% twice a day; CD0153F 0.01% once a day; FIG. 1. As for the experimental part: (§2) P. acnes stimulates the production of inflammatory cytokines, such as TNFα and interleukins. In this Example, the mouse ear edema model was used to investigate inflammation induced by P. acnes. This is a chronic inflammation model involving intense innate and adaptive immunity. The thickness of the ear is measured each day to determine the amount of swelling caused by P. acnes. The amount of TNFα and IL-6 secreted is determined.
(§3) After one intradermal injection of live P. acnes on Day 0, each of the following preparations was topically applied once a day on the ear of a Balb/c mouse over the course of 7 days (from Day 1 to Day 7). […]
(§4) Preparations 1-3 served as controls for comparison with preparations 4-7. […] The thickness of the ear was measured each day with a caliper from day 1 until day 8. The amount of TNFα and IL-6 secreted by the skin cells was determined using tissue biopsy samples from the mouse ear. TNF-α and Il-6 were measured using the mouse BD™ Cytometric Bead Array Flex (BD Bioscience, Dosage by FacsArray).

Test [5] concerns TNFα. Put plainly: Mouse ear edema model, TNFα secretion by ear skin cells. In kind it is in vivo, Balb/c mouse. The conditions noted are these: ear tissue biopsy, topical Day 1 to Day 7; FIG. 2A. How it is done:
as §2, §3, §4

In test [6] the target is T1, MMP-3 (Homo sapiens, UniProt P08254).
T1 construct: purchased Calbiochem
As to the kind of experiment: Selectivity assay, MMP-3. The conditions noted are these: Table 3, Example 30. In kind it is biochemical.
Source text: The enzymes are purchased from Calbiochem.
as §1

Test [7] concerns IL-6. Put plainly: Mouse ear edema model, IL-6 secretion by ear skin cells. In kind it is in vivo, Balb/c mouse. The conditions noted are these: ear tissue biopsy, topical Day 1 to Day 7; FIG. 2B. As for the experimental part: as §2, §3, §4
Test [8] deals with T2, MMP-1 (Homo sapiens, UniProt P03956).
T2 construct: purchased Calbiochem
T2 sequence (P03956 100-469): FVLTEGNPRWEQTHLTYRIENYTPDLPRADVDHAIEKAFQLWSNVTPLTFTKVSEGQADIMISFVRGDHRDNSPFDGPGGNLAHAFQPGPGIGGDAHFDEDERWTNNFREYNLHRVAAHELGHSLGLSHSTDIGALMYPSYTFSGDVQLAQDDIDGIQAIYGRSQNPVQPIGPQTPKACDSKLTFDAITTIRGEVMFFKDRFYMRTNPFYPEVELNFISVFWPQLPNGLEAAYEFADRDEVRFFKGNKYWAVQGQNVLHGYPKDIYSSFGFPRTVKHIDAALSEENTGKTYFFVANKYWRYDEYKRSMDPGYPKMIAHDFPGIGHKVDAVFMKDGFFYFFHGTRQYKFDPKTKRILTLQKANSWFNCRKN
Put plainly: Selectivity assay, MMP-1. In kind it is biochemical. The conditions noted are these: Table 3, Example 30.

Setting [9] is: Table 3, Example 30, read-out: TACE = ADAM 17 (IC50 nM).

Sequence of TACE enzyme (P78536 215-477): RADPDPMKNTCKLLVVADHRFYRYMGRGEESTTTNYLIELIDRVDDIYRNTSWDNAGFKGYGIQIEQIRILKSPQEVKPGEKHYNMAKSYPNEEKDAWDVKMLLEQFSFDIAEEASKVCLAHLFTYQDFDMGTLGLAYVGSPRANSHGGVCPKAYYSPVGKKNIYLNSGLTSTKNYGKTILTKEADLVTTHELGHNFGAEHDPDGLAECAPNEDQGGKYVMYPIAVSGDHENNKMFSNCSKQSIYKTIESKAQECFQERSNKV
Sequence of MMP-12 (P39900 106-470): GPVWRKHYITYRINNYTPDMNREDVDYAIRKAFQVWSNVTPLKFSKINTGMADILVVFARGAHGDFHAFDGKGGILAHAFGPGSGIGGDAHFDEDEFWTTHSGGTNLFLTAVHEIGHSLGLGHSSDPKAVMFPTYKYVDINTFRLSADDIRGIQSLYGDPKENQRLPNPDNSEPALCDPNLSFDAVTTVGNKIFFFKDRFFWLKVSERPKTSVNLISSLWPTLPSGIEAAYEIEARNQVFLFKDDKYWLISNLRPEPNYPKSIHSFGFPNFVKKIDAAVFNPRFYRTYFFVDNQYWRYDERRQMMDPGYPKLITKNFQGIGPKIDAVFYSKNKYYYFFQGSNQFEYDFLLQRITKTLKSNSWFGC
T1 sequence (P08254 100-477): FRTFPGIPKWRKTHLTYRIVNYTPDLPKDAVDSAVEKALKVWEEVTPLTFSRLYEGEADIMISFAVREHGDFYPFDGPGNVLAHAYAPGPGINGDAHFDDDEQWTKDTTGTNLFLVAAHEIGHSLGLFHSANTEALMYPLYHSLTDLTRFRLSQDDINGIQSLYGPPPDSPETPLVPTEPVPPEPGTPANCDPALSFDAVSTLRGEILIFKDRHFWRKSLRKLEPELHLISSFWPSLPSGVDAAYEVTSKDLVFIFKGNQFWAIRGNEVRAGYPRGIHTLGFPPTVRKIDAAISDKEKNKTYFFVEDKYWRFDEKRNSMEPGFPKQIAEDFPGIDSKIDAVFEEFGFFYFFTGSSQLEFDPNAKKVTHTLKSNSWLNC

`Cc1cc(COc2ccc(S(=O)(=O)NC[C@@H](C(=O)NO)N3CCOCC3)cc2)c2ccccc2n1` [B]: the IC50 was found to be 226 nM in test [1] and 51 nM in test [3] (setting [9]). Moreover, the “effect on other MMPs” value in test [2] was “no effect”.
For the compound `CCCCC(=O)O[C@]1(C(=O)CO)[C@@H](C)C[C@H]2[C@@H]3CCC4=CC(=O)C=C[C@]4(C)[C@@]3(F)[C@@H](O)C[C@@]21C` [CD0153F, betamethasone valerate, reference compound], the “inhibition of edema (ear swelling) induced by P. acnes” value in test [4] was “inhibition of inflammation”. In addition, in test [5], the “secretion of TNFα induced by P. acnes” value is “inhibiting TNFα secretion”.
Turning to `Cc1cc(COc2ccc(S(=O)(=O)NC[C@@H](C(=O)NO)N3CCC(Cc4ccccc4)CC3)cc2)c2ccccc2n1` [C], in test [3] (setting [9]), the IC50 turned out to be 62 nM.
The compound `Cc1cc(COc2ccc(S(=O)(=O)NC[C@@H](C(=O)NO)N3CCCCC3)cc2)c2ccccc2n1` [Compound A] gave an IC50 in test [1] of 977 nM. Also, the “effect on other MMPs” value in test [2] is “no effect”.
Take `Cc1cc(COc2ccc(S(=O)(=O)NC[C@@H](C(=O)NO)N3CCC(S(=O)(=O)C(C)C)CC3)cc2)c2ccccc2n1` [Compound D]: the “inhibition of edema (ear swelling) induced by P. acnes” value in test [4] is “did not inhibit the edema”. Besides, the “secretion of TNFα induced by P. acnes” value in test [5] is given as “greatly reduced”. The half-inhibitory concentration (IC50) in test [6] was 574 nM; in test [8], 969 nM; in test [3] (setting [9]), 33 nM. The “secretion of IL-6 induced by P. acnes” value in test [7] was “moderately reduced”.
For the compound `CC#CCOc1ccc(S(=O)(=O)N(C)CC(C(=O)NO)N2CCN(S(C)(=O)=O)CC2)cc1` (centres unmarked) [Example 1, 3-[(4-but-2-ynyloxybenzenesulfonyl)methylamino]-N-hydroxy-2-(4-methanesulfonylpiperazin-1-yl)propionamide], the “% TACE inhibition at 10 μM” value in test [3] came out at 100%.
As to `CN(C[C@@H](C(=O)NO)N1CCN(S(C)(=O)=O)CC1)S(=O)(=O)c1ccc(OCc2ccccc2)cc1` [Example 4, (S)-3-[(4-Benzyloxybenzenesulfonyl)methylamino]-N-hydroxy-2-(4-methanesulfonylpiperazin-1-yl)propionamide], in test [3], the “% TACE inhibition at 10 μM” value was 95%. In addition, in test [3] (Table 1, read-out: IC50 - TACE), the IC50 was determined as 497 nM.

For orientation: IC50 means the concentration that inhibits the measured activity by half.
